Paper PMC8815882, “Screening the pandemic response box identified benzimidazole carbamates, Olorofim and ravuconazole as promising drug candidates for the treatment of eumycetoma” (PLoS Neglected Tropical Diseases, 2022)
Like-named read-outs stand apart in the source and are kept apart here.

Tested on: M. mycetomatis genome strain MM55
Test: CLSI M38-A2 based in vitro susceptibility screening (XTT or resazurin), growth at fixed concentration
Format: cell-based, Madurella mycetomatis
Conditions: Madurella mycetomatis; for Percent fungal survival at 100 µM: read-out: Percentage survival at 100um, 100 uM A (second replicate column)
[1] = mean of three replicates, read-out: Percentage survival at 25um, 25 uM mean
[2] = replicate A, read-out: Percentage survival at 25um, 25 um A
[3] = replicate B, read-out: Percentage survival at 25um, 25 uM B
[4] = replicate C, read-out: Percentage survival at 25um, 25 uM C
[5] = first replicate column, read-out: Percentage survival at 100um, 100 uM A
[6] = mean of three replicates, read-out: Percentage survival at 100um, 100 uM mean
[7] = second replicate column, read-out: Percentage survival at 100um, 100 uM A
[8] = third replicate column, read-out: Percentage survival at 100um, 100 uM A
[9] = mean of replicates, read-out: Percentage survival at 25um, 25 uM mean
[10] = mean of replicates, read-out: Percentage survival at 100um, 100 uM mean
[11] = replicate 1, read-out: Percentage survival at 100um, 100 uM A
[12] = replicate 2, read-out: Percentage survival at 100um, 100 uM A
[13] = replicate 3, read-out: Percentage survival at 100um, 100 uM A
[14] = replicate 1, read-out: Percentage survival at 100um, 100 uM A (first replicate column)
[15] = replicate 3, read-out: Percentage survival at 100um, 100 uM A (third replicate column)

| SMILES | activity at 25 µM [1] | activity at 25 µM [2] | activity at 25 µM [3] | activity at 25 µM [4] | activity at 100 µM [6] | activity at 25 µM [9] | activity at 100 µM [10] | activity at 100 µM [11] | activity at 100 µM [12] | activity at 100 µM [13] | also measured |
| --- | --- | --- | --- | --- | --- | --- | --- | --- | --- | --- | --- |
| CC(C)(C)c1ccc(Oc2ccc(N)cc2)cc1 [MMV1174026] | 74% | 108% | 51.8% | 62.2% | 2.41% | – | – | – | – | – | activity at 100 µM [5]: -4.12%; activity at 100 µM [7]: 6.23%; activity at 100 µM [8]: 5.13% |
| Nc1nc(Nc2ccc3nc(-c4ccc(F)cc4)cc(N)c3c2)cc(-c2ccccc2)n1 [MMV1593541] | – | – | – | – | – | – | – | – | – | – | activity at 25 µM (mean of three, M. mycetomatis MM55, read-out: Percentage survival at 25um, 25 uM mean): 65.8%; activity at 25 µM (replicate A, M. mycetomatis MM55, read-out: Percentage survival at 25um, 25 um A): 82.5%; activity at 25 µM (replicate B, M. mycetomatis MM55, read-out: Percentage survival at 25um, 25 uM B): 80.3%; activity at 25 µM (replicate C, M. mycetomatis MM55, read-out: Percentage survival at 25um, 25 uM C): 34.5%; activity at 100 µM (mean of three, M. mycetomatis MM55, read-out: Percentage survival at 100um, 100 uM mean): 2.33%; activity at 100 µM (replicate 1, M. mycetomatis MM55, read-out: Percentage survival at 100um, 100 uM A (first replicate column)): 5.55%; Percent fungal survival at 100 µM (replicate 2, M. mycetomatis MM55): 5.6%; activity at 100 µM (replicate 3, M. mycetomatis MM55, read-out: Percentage survival at 100um, 100 uM A (third replicate column)): -4.16% |
| O=C(NCc1ccc2c3c(cccc13)C(=O)N2)c1cccs1 [MMV1341773] | – | 79.8% | 76.7% | 69.6% | – | 75.4% | 76.2% | 75.7% | 74% | 78.8% | – |
| CNc1nc(=O)[nH]cc1F [MMV1782388] | – | 88.9% | 76.2% | 78.1% | – | – | – | – | – | – | activity at 25 µM (mean, read-out: Percentage survival at 25um, 25 uM mean): 81.1%; activity at 100 µM (mean, read-out: Percentage survival at 100um, 100 uM mean): 93.4%; activity at 100 µM (replicate (first column), read-out: Percentage survival at 100um, 100 uM A): 99.3%; activity at 100 µM (replicate (second column), read-out: Percentage survival at 100um, 100 uM A): 85.3%; activity at 100 µM (replicate (third column), read-out: Percentage survival at 100um, 100 uM A): 95.6% |
| O=C(Nc1nnc(-c2ccc(Cl)cc2)o1)c1nc2ccccc2s1 [MMV102833] | 111% | 134% | 137% | 62.9% | 73.2% | – | – | – | – | – | activity at 100 µM [14]: 81.5%; Percent fungal survival at 100 µM (replicate 2): 66.4%; activity at 100 µM [15]: 71.7% |
| CC(C)Oc1ccc(-n2cnc3cc(/C=C\c4ccc(C(C)(C)O)cc4)ccc32)cc1 [MMV1782350] | – | – | – | – | – | – | – | – | – | – | activity at 25 µM (mean of replicates, MM55, read-out: Percentage survival at 25um, 25 uM mean): 60.8%; activity at 25 µM (replicate A, MM55, read-out: Percentage survival at 25um, 25 um A): 60%; activity at 25 µM (replicate B, MM55, read-out: Percentage survival at 25um, 25 uM B): 63%; activity at 25 µM (replicate C, MM55, read-out: Percentage survival at 25um, 25 uM C): 59.5%; activity at 100 µM (mean of replicates, MM55, read-out: Percentage survival at 100um, 100 uM mean): 55.5%; activity at 100 µM (replicate 1, MM55, read-out: Percentage survival at 100um, 100 uM A): 57.8%; activity at 100 µM (replicate 2, MM55, read-out: Percentage survival at 100um, 100 uM A): 56.4%; activity at 100 µM (replicate 3, MM55, read-out: Percentage survival at 100um, 100 uM A): 52.3% |
| Nc1nc(=O)c(Br)c(-c2cccc(Cl)c2)[nH]1 [MMV1645152] | 84.5% | 79.7% | 91.3% | 82.6% | 75.8% | – | – | – | – | – | activity at 100 µM [5]: 87.5%; activity at 100 µM [7]: 77.5%; activity at 100 µM [8]: 62.2% |
| Fc1ccc2c(/C=C/c3nnn[nH]3)c[nH]c2c1 [MMV1578563] | – | 86.3% | 93.6% | 81.6% | – | 87.2% | 98.8% | 96% | 91.8% | 109% | – |
| Cc1c(CN(C)C(=O)/C=C/c2cnc3c(c2)C(C)(C)C(=O)N3)oc2ccccc12 [MMV1579788] | – | 69.6% | 89.2% | 68.5% | – | 75.8% | 90.5% | 57.9% | 71.3% | 142% | – |
| Nc1nc(-c2ccccc2)nc2c1ncn2[C@@H]1O[C@H](COS(=O)(=O)NC(=O)c2ccccc2O)[C@@H](O)[C@H]1O [MMV1582488] | – | 74.7% | 83.6% | 75.7% | – | 78% | 72.1% | 75.9% | 69.3% | 71.1% | – |
| O=C(CC1Sc2ncnn2C1=O)Nc1ccc(Br)cc1 (stereo not shown) [MMV214956] | 63.2% | 56.2% | 60% | 73.5% | -1.13% | – | – | – | – | – | activity at 100 µM [14]: -7.27%; Percent fungal survival at 100 µM (replicate 2): -0.0182%; activity at 100 µM [15]: 3.91% |
